In paper PMC5380659, “Unique charge-dependent constraint on collagen recognition by integrin α10β1” (Matrix Biology, 2017):
Entries after “also recorded” stand apart in the source; their conditions may differ.

Tests used:
integrin α1β1 = tested on: integrin α1β1; design: method as in 3 sources, ref [4]; PMID 19693543; doi:10.1007/s00441-009-0834-6; 4 Barczyk M. Carracedo S. Gullberg D. Integrins Cell Tissue Res. 339 1 2010 269 280 19693543 10.1007/s00441-009-0834-6 PMC2784866 ||| ref [12] = [12]; PMID 22654115; doi:10.1074/jbc.M112.353144; 12 Hamaia S.W. Pugh N. Raynal N. Nemoz B. Stone R. Gullberg D. Bihan D. Farndale R.W. Mapping of potent and specific binding motifs, GLOGEN and GVOGEA, for integrin alpha1beta1 using collagen toolkits ||| ref not given; conditions: cited from earlier work
Source text: The collagen-binding integrin family is complete, with four established members, α1β1, α2β1, α10β1 and α11β1. These are highly-conserved, heterodimeric receptors with an important structural feature in common, the presence of an I (inserted) domain which contains the metal ion-dependent adhesion site (MIDAS). The MIDAS is a constellation of electronegative residues at the distal surface of this 200-residue domain that, in the resting, non-ligated state, can co-ordinate a Mg^2 + ion. […] Many related motifs have now been identified using the Collagen Toolkits developed in this laboratory for the purpose. These are libraries of overlapping peptides of 27 amino acids of collagen primary sequence (guest sequence), flanked ... || Why would collagen II differ in this respect?

[1] = tested on: human recombinant GST-α10-R215Q I-domain; assay: SPBA of α10-R215Q mutant I domain; assay type: binding; conditions: 2 mM MgCl2, relative to wild type α10 I domain, Fig. 8F, Fig. 9
Source text: The I domain was first applied to the collagen II and III Toolkits in the presence or absence of Mg^2 +, detected using anti-GST as before, and data are shown in Fig. 9A and B. α10-R215Q I domain binding was Mg^2 +-dependent, reproducing the wild type Toolkit II data shown in Fig. 1A.
(§1) pGEX-2T-α1, α2 and α10 I were used to generate the Q to R or R to Q mutations using QuikChange PCR kit from Stratagene (200518).
To express α2 wild type and mutant I domains, a 100-ml overnight culture of transformants (Origami strain) was used to inoculate 1 L of Luria broth containing 100 μg/ml ampicillin, 15 μg/ml Kanamycin and 12.5 μg/ml Tetracyclin. The culture was grown for 2 h at 37 °C and then induced at room temperature for 4 h with isopropyl β-D-thiogalactopyranoside (0.1 mM, Melford Laboratories, UK, #MB1008). Cells were harvested by centrifugation at 4500g for 20 min, and pellets for GST-fusion were resuspended in 10 ml Dulbecco's phosphate-buffered saline, containing 1 tablet of protease inhibitor cocktail (Roche) and 5 mg of lysozyme (Fluka). Suspensions were sonicated and Triton X-100 was added to 1% (v/v). Suspensions were mixed on a roller for 15 min at room temperature, then centrifuged at 18,000 × g for 20 min, and supernatants were pooled. […]
(§2) I domain adhesion was determined colorimetrically, as described, here termed solid phase binding assay (SPBA). […]

C2C12-α2β1 cells = assay: xCELLigence real-time adhesion of C2C12-α2β1 cells; assay type: cell-based, mouse; conditions: up to 1 h, compared to GFOGER, Fig. 6B
α1-Q214R I domain = assay: SPBA of α1-Q214R mutant I domain; assay type: binding, human; conditions: Gln214 replaced with Arg, Fig. 8D
Source text: (§3) To test this hypothesis, we replaced the corresponding Q214 and Q215 in α1 and α2 I domains, respectively, with R, as in α10, and we replaced the R215 in the α10 I domain with Q, as in α1 and α2.
(§4) Fig. 8 Arginine substitution of I domain surface reduces binding to Toolkit peptide III-4. Wild type I domain from α1, α2 and α10 were allowed to adhere to Toolkit peptide III-4 that contains GROGER, as described in Fig. 1, and binding is shown in A, B and C, respectively. In D and E, the natural glutamine residues of α1, Q214, and of α2, Q215, was replaced with arginine. In F, the natural arginine, R215, of α10 was replaced with glutamine.
as §1
I domain adhesion was determined colorimetrically, as described, here termed solid phase binding assay (SPBA). Peptides were coated at 10 μg/ml for 1 h at 22 °C on Immulon-2 HB 96-well plates (Thermo Life Sciences, Basingstoke, UK), and blocked for 1 h with 200 μl of TBS containing 50 mg/ml bovine serum albumin. Wells were washed four times with 200 μl of the adhesion buffer (TBS with 1 mg/ml bovine serum albumin) before adding 100 μl of adhesion buffer containing 10 μg/ml of recombinant GST I domains in the presence of either 2 mM MgCl2 or EDTA for 1 h at room temperature. […]

α2-Q215R I domain = assay: SPBA of α2-Q215R mutant I domain; assay type: binding, human; conditions: Gln215 replaced with Arg, Fig. 8E
Source text: as §3, §4, §1
To express α2 wild type and mutant I domains, a 100-ml overnight culture of transformants (Origami strain) was used to inoculate 1 L of Luria broth containing 100 μg/ml ampicillin, 15 μg/ml Kanamycin and 12.5 μg/ml Tetracyclin. The culture was grown for 2 h at 37 °C and then induced at room temperature for 4 h with isopropyl β-D-thiogalactopyranoside (0.1 mM, Melford Laboratories, UK, #MB1008). […]
as §2

[2] = tested on: Other I domains that lack such a positive residue; assay: SPBA of I domains that lack the positive residue (wild type); assay type: binding, human; conditions: I domains lacking a positive residue at position 215
Procedure: as §4
I domain adhesion was determined colorimetrically, as described, here termed solid phase binding assay (SPBA). Peptides were coated at 10 μg/ml for 1 h at 22 °C on Immulon-2 HB 96-well plates (Thermo Life Sciences, Basingstoke, UK), and blocked for 1 h with 200 μl of TBS containing 50 mg/ml bovine serum albumin. Wells were washed four times with 200 μl of the adhesion buffer (TBS with 1 mg/ml bovine serum albumin) before adding 100 μl of adhesion buffer containing 10 μg/ml of recombinant GST I domains in the presence of either 2 mM MgCl2 or EDTA for 1 h at room temperature. Wells were washed five times with 200 μl of adhesion buffer containing MgCl2 or EDTA, before adding 100 μl of adhesion buffer containing the anti-GST-HRP conjugate at 1:10,000 dilution for 1 h at room temperature. After washing, colour was developed using an ImmunoPure TMB Substrate Kit (Pierce) according to the manufacturer's instructions.

| Substance | Affinity for integrin α1β1 (integrin α1β1; ref [12]) | Affinity for integrin α1β1, discussion (integrin α1β1; ref not given) | Binding of α10-R215Q I domain [1] | Adhesion of C2C12-α2β1 cells to short THP (time course) (C2C12-α2β1 cells) | Binding of α1-Q214R I domain (α1-Q214R I domain) | Binding of α2-Q215R I domain (α2-Q215R I domain) | Binding by other I domains [2] |
| --- | --- | --- | --- | --- | --- | --- | --- |
| GLOGEN [short THP containing GLOGEN] | high-affinity ligand | high-affinity site | – | – | – | – | – |
| GROGER [short triple-helical peptide containing GROGER] | – | – | restored binding; also recorded: better binding | bound quite well | impaired their binding; also recorded: failed to bind; also recorded: collapse of binding | impaired their binding; also recorded: failed to bind; also recorded: collapse of binding | bind GROGER well |
